“Also recorded” adds a separate entry of the source.
How the values were obtained:
[1] = system: HEK 293 cell line; assay: Cell-based cytotoxicity assay (MTT); design: species or system human
Procedure: A Tecan Genesis Robotic Workstation was used to prepare solutions in 96- and 384-well plates. Solutions contained culture media, buffers, a cryoprotectant composition (Compound 12) or DMSO. Solutions were adjusted to the desired pH. Serial dilutions were performed to obtain solutions containing various concentrations of Compound 12 and DMSO. Control experiments were performed using only culture media.
For these experiments, cells were seeded at low density (i.e., 10% confluence), exposed to solutions containing Compound 12 or DMSO, and placed in a 37° C. incubator. The cells were allowed to grow until control cells that were treated only with empty vehicle approached 70% confluence (typically about 3 to 5 days). Assessment for compound cytotoxicity was via MTT assay.

[2] = Vitrification screening assay (critical EG concentration); assay type: physicochemical; conditions: lowest EG for complete vitrification of 20 μL sample, 5 mg/mL peptoid in formulation, liquid nitrogen immersion
Procedure: As another means of increasing the throughput of library analysis, a vitrification screening assay was performed to evaluate anti-icing efficacy. For these experiments the compounds named “Compound 11,” “Compound 12,” “Compound 25,” Compound 26,” “Compound 27,” “Compound 28,” “Compound 60,” “Compound 62,” “Compound 63,” “Compound 64,” “Compound 69,” “Compound 70,” “Compound 71,” “Compound 72,” “Compound 73,” “Compound 74,” “Compound 75,” “Compound 76,” “Compound 77,” “Compound 78,” “Compound 81,” “Compound 82,” “Compound 83,” “Compound 84,” and “Compound 85” were tested.
For these experiments, 20 μL samples were flash frozen by liquid immersion in liquid nitrogen. Ethylene glycol (EG) concentrations between 5% and 25% (v/v) were used. A concentration of 5 mg/mL of peptoid polymer compounds were used in formulation. Table 12 lists the lowest concentration of EG necessary to bring about complete vitrification of a 20 μL sample with peptoid polymer in formulation, referred to as the “critical EG concentration.” A sample of formulation without the presence of a peptoid polymer was only able to bring about vitrification at 20% or more EG. Peptoid polymers of interest were able to bring about vitrification within formulas containing EG when the concentration of EG was lower than 20%.

[3] = system: HEK 293 cells; assay: Cryopreservation assay, flash freezing in liquid nitrogen, Calcein AM viability; assay type: cell-based, human
Procedure: Initial cryopreservation assays were performed using very simple solutions, with and without the addition of Compound 12, in order to minimize confounding outside factors. For this first set of experiments, two sample solutions were prepared. The first sample solution contained simple buffer and ethylene glycol (EG) at a concentration of 22.5% (v/v), and the second sample solution contained simple buffer, EG (22.5% (v/v)), and 5 mg/mL (0.5% (w/v)) of Compound 12.
HEK 293 cells were grown until 70% confluent, then treated with trypsin to remove adhesion proteins and yield free floating cells. Cells were counted using a hemocytometer and sample cell concentrations were adjusted to final concentrations of 10,000 cells per microliter. Cells were then compressed into tight pellets by centrifugation, and each sample was subsequently mixed with 20 μL of one of the sample solutions. Samples were then flash frozen by immersion in liquid nitrogen, followed by rewarming in a 37° C. water bath. After the freeze-thaw process, cells were suspended in a 400× volume of culture media for recovery. The positive control sample was treated with culture media at 37° C. and not subjected to the freeze-thaw process. The negative control sample was treated with culture media only during the freeze-thaw process. After recovery, cells were stained with Calcein AM for 30 minutes and cell viability was measured using a fluorescence plate reader.
A second set of experiments was performed to evaluate the cryopreservation potential of a formulation that contained 5 mg/mL of Compound 12 plus a mixture of glycols, disaccharides, and a general buffer. Post-thaw survival following vitrification in liquid nitrogen was evaluated as described above.

[4] = system: K562 cells; assay: K562 viability after storage at −20° C. for 3 days (Alamar Blue); assay type: cell-based; conditions: 1% peptoid in XT Formula, K562 stored at −20° C. for 3 days, vs. XT Formula alone
Procedure: Several compounds were examined in XT Formula at 1% concentration (i.e., 1% peptoid polymer concentration) for their ability to increase the viability of cells subjected to super-cooled storage. XT Formula contains HTK buffer, among other components. In particular, the effects of these compounds on the viability of K562 cells stored at −20° C. for 3 days were evaluated. An Alamar Blue assay was used to assess cell viability 7 days after stored cells were thawed.

[5] = Larger volume flash freeze / rewarm / −20° C. storage assay; assay type: physicochemical; conditions: 22.5% EG
Procedure: In order to test the usefulness of peptoid polymers at larger scales, experiments were performed using solution volumes that are similar to volumes used for standard egg and stem cell preservation. For these experiments, two samples, one containing 22.5% EG and buffer only, and another containing 22.5% EG and 5 mg/ml (0.5% w/v) of Compound 12 and buffer, were flash frozen in liquid nitrogen. […] The rewarming of the solutions in a 37° C. water bath led to an unexpected and beneficial result. The Compound 12 solution bypassed devitrification in less than 2 seconds upon rewarming (FIG. 6B, right), whereas chunks of ice were seen floating in the control sample (FIG. 6B, left) after 20 seconds. Condensation was seen on each of the tubes because the tubes were actually still much below room temperature.

[6] = system: K562 cells; assay: Cell toxicity assay in K562 cell culture; assay type: cell-based; conditions: 1% concentration, 24 hours at 37° C. and 5% CO2
Procedure: The cytotoxicity of several compounds were evaluated using a typical cell toxicity assay in K562 cell culture. […] As a positive control, some cells were incubated without any peptoid polymer (DMEM). For a negative control, cells were incubated with DMSO (DMEM+10% DMSO).

[7] = Crystallographic x-ray diffraction (XRD) ice crystal formation assay; assay type: physicochemical
Procedure: In order to increase the throughput of library analysis, a crystallographic x-ray diffraction (XRD) technique was used to evaluate ice crystal formation. For these experiments, the compounds named “Compound 2,” “Compound 8,” “Compound 10,” “Compound 11,” “Compound 12,” “Compound 13,” and “Compound 58” were tested. Compound 58 is similar to Compound 12, except that an arginine amino acid has been appended to the N-terminal end.
For these experiments, EG concentrations between 15% and 30% (v/v) were used. Typically, EG, DMSO, and other cryoprotectants are used during XRD sample analysis at concentrations of 35-40% (v/v) to vitrify solutions and avoid diffraction interference from ice crystals. Concentrations of 1 and 5 mg/mL of the peptoid and peptoid-peptide compounds were used. FIGS. 3A, 3B, and 3C illustrate exemplary XRD data under conditions of complete vitrification, partial vitrification with the presence of cubic ice, and freezing ([…]), respectively. FIG. 3D provides ice rings scores for a variety of EG concentrations and two concentrations of Compounds 2, 8, and 12.
“IceRing1” and “IceRing2” refer to ice formation scores, which range between 0 (no ice formation) and 15 (large ice formation).

[8] = 160 mM ethylene glycol in MilliQ water, slow cooled, −20° C., one hour
Procedure: In this experiment, four water-based samples were prepared in capillary tubes containing MilliQ purified water. One sample contained only water, and another sample contained 160 mM ethylene glycol (EG). The other two samples each contained a peptoid polymer at 9 mM.
After sample preparation, all samples were slow cooled and incubated at −20° C. on a Peltier cooled plate. After one hour, samples were removed and immediately photographed using a digital camera attached to a 180× Stereo Zoom microscope (FIG. 2A).

[9] = system: K562 cells; assay: K562 survival after storage at −80° C. for 3 days (Alamar Blue); assay type: cell-based; conditions: 1% peptoid in XT Formula, K562 stored at −80° C. for 3 days
Procedure: Several compounds were examined in XT Formula at 1% concentration (i.e., 1% peptoid polymer concentration) for their effects on the cryopreservation of cells. In particular, the effects of these compounds on the survival of K562 cells stored at −80° C. for 3 days were evaluated. An Alamar Blue assay was used to assess cell survival 1 day after stored cells were thawed. A 10% DMSO formula and DMEM cell media only were used as controls.

Q: What does the source list for `CCC(C)NCC(=O)N(CC(=O)N(CC(=O)N(CC(=O)N(CC(=O)N(CC(=O)N(CC(=O)N(CC(=O)N(CC(=O)N(CC(N)=O)C(C)CC)C(C)CC)CC(C)O)CC(C)O)C(C)CC)C(C)CC)CC(C)O)CC(C)O)C(C)CC` (stereo not drawn) [Compound 12, Nsb-Nsb-Nhp-Nhp-Nsb-Nsb-Nhp-Nhp-Nsb-Nsb]?
A: toxicity by MTT assay ([1]; at 0.5% w/v, the concentration that prevents ice formation): did not show toxicity; toxicity by MTT assay ([1]; at concentrations four times greater than 0.5% w/v): did not show significant toxicity; toxicity by MTT assay ([1]; serial dilutions in culture media, 37° C., about 3 to 5 days): did not significantly deviate from the that of culture media alone; Critical Ethylene Glycol Concentration [2]: 15.0% (ν/ν); post-thaw survival of the cells ([3]; formulation: 5 mg/mL of Compound 12 plus a mixture of glycols, disaccharides, and a general buffer, vitrification in liquid nitrogen, 16 hours post-thaw): 98%; vitrification of cell sample during the freezing process ([3]; simple buffer, EG 22.5% (v/v), 5 mg/mL): complete vitrification without ice formation; cell survival after freeze-thaw ([3]; simple buffer, EG 22.5% (v/v), 5 mg/mL vs. same solution without compound, viability 12 hours post-thaw): greatly improved cell survival; devitrification of cell sample on rewarming ([3]; simple buffer, EG 22.5% (v/v), 5 mg/mL vs. sample lacking compound): bypassed much more rapidly; cell viability 7 days after thaw [4]: improved cell viability compared to XT Formula alone; vitrification on flash freezing in liquid nitrogen ([5]; 5 mg/ml (0.5% w/v) and buffer): complete vitrification with no ice formation; also recorded: vitrified; state after overnight in −20° C. freezer ([5]; 100 μL sample, 5 mg/ml): remained unfrozen; cytotoxicity (cell persistence) [6]: persisted about as well as cell incubated in cell culture media alone (DMEM); ice formation after flash freezing (XRD) ([7]; 5 mg/mL (0.5% (w/v)), EG 17.5% (v/v) in water, stream of liquid nitrogen vapor): ice-free after flash freezing; anti-icing effect in comparison to EG at the same molar concentration ([7]; 5 mg/mL with EG 17.5% (v/v)): 500 times; reduction of necessary EG concentration while preventing ice formation (XRD ice ring scores) ([7]; 1 and 5 mg/mL peptoid, EG 15-30% (v/v)): significantly reduced necessary EG concentrations while preventing ice formation

Q: Which “ice crystal formation in capillary tube” value [8] does the source give for `OCCO` [EG, ethylene glycol] here?
A: significant ice crystal formation

Q: Which “cell survival 1 day after thaw” value [9] does the source give for `CCC(C)NCC(=O)N(CC(=O)N(CCCN1CCCC1=O)CC(=O)N(CCCN1CCCC1=O)CC(=O)N(CC(=O)N(CC(=O)N(CCCN1CCCC1=O)CC(=O)N(CCCN1CCCC1=O)CC(=O)N(CC(=O)N(CC(N)=O)C(C)CC)C(C)CC)C(C)CC)C(C)CC)C(C)CC` (stereo not drawn) [Compound 76, Nsb-Nsb-Nop-Nop-Nsb-Nsb-Nop-Nop-Nsb-Nsb] here?
A: produced the greatest improvement in cell survival

Q: And the “Critical Ethylene Glycol Concentration” value [2]?
A: 15.0% (ν/ν)

Q: And the “cell viability 7 days after thaw” value [4]?
A: improved cell viability compared to XT Formula alone

From US12391799B2, “Peptoid polymers and methods of use” (X-Therma, Inc., priority 2017, dated 2025)
